Experimental data reported in patent publication US6506901B2, “Substituted 2-(S)-hydroxy-3-(piperidin-4-yl-methylamino)-propyl ethers and substituted 2-aryl-2-(R)-hydroxy-1-(piperidin-4-yl-methyl)-ethylamine β-3 adrenergic receptor agonists” (Wyeth, priority 2000, dated 2003).
Several values for one entry are separate records, joined by “and”; a condition that tells them apart may be missing. Equal values may be shown once.

Target: T1, human β3 receptors (Homo sapiens, UniProt P13945)
T1 construct: Full length β3 AR clones (402 amino acids) containing the last 6 amino acids of hβ3—AR; expressed in transfected cells; host or cells: CHO cells
T1 sequence (P13945 whole entry): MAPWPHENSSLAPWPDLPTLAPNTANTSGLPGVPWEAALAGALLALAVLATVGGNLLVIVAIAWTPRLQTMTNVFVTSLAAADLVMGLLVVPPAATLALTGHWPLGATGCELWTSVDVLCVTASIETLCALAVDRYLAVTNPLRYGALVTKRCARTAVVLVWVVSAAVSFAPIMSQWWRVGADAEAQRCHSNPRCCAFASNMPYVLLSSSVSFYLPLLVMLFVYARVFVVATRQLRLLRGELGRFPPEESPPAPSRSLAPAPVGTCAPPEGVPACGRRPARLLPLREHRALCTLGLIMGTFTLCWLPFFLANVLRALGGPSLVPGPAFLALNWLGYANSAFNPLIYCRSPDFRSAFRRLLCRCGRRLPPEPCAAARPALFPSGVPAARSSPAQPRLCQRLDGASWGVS
Assay: cAMP response (SPA) in CHO cells expressing cloned human β3 adrenergic receptor
Assay type: cell-based
Conditions: for EC50: CHO cells expressing human β3 receptor, cAMP, 30 min incubation, 10^−9 M to 10^−5 M; for IA(β3): maximal response compared to the maximal response of isoproterenol at 10^−5 M
Method: Binding to the receptors was measured in Chinese Hamster ovary (CHO) cells that were transfected with adrenergic receptors.
Cloning of Human β3-AR Genomic DNA: cDNA was constructed by ligating four polymerase chain reaction (PCR) products using the following primers: an ATG-NarI fragment, sense primer 5′-[…]3′ and anti-sense primer 5′ […]3′; a NarI-AccI fragment, 5′ […]3′ as sense and 5′ […]3′ as anti-sense primer; an AccIi-StyI fragment, sense primer 5′ […]3′ and anti-sense primer 5′ […]3′ and a StyI-TAG fragment, with sense primer 5′ […]3′ and anti-sense primer 5′ […]3′. The corresponding primer sequences are described in Mantzoros, C. […] The four fragments are ligated into a pUC 18 plasmid (Gibco-BRL) and sequenced.
CHO cells were grown in 24-well tissue culture plates in Dulbecco's Modified Eagle Media with 10% fetal bovine serum, MEM non-essential amino acids, Penicillin-Streptompycin and Geneticin. […] Isoproterenol (10^−5 M) was used as an internal standard for comparison of activity. Cells were incubated at 37° C. on a rocker for 30 min with the β3 cells and 15 min for β1 and β2 cells. Incubation was stopped with the addition of 0.2N HCl and neutralized with 2.5N NaOH. The plates, containing the cells and neutralized media, were stored at −20 degrees celsius until ready to test for cAMP using the SPA test kit (Amersham).
Data Analysis and Results: Data collected from the SPA test procedure were analyzed as per cent of the maximal isoproterenol response at 10^−5 M. Activity curves were plotted using the SAS statistical and graphics software.

SMILES | EC50 | IA(β3)
CCOC(=O)Cc1cn(-c2ccc(S(=O)(=O)N3CCC(CNC[C@H](O)c4ccc(O)c(NS(C)(=O)=O)c4)CC3)cc2)c2ccccc12 [Example 96, {1-[4-(4-{[(2R)-2-Hydroxy-2-(4-hydroxy-3-methanesulfonylamino-phenyl)-ethylamino]-methyl}-piperidine-1-sulfonyl)-phenyl]-1H-indol-3-yl}-acetic Acid Ethyl Ester] | 13 nM | 0.85
O=c1[nH]c2cccc(OC[C@@H](O)CNCC3CCN(CCC(F)(F)F)CC3)c2[nH]1 [Example 22, 4-((2S)-2-Hydroxy-3-{[1-(3,3,3-trifluoro-propyl)-piperidin-4-ylmethyl]-amino}-propoxy)-1,3-dihydro-benzoimidazol-2-one] | 1210 nM | 0.53
O=[N+]([O-])c1ccc(S(=O)(=O)N2CCC(CNC[C@H](O)COc3ccc(O)cc3)CC2)cc1 [Example 45, 4-((2S)-2-Hydroxy-3-{[1-(4-nitro-benzenesulfonyl)-piperidin-4-ylmethyl]-amino}-propoxy)-phenol] | 610 nM | 1
O=S(=O)(c1ccc(OC(F)(F)F)cc1)N1CCC(CNC[C@H](O)COc2ccc(O)cc2)CC1 [Example 47, 4-((2S)-2-Hydroxy-3-{[1-(4-trifluoromethoxy-benzenesulfonyl)-piperidin-4-ylmethyl]-amino}-propoxy)-phenol] | 250 nM | 0.7
COc1ccc(S(=O)(=O)N2CCC(CNC[C@H](O)COc3cccc4[nH]c(C)cc34)CC2)cc1 [Example 40, 4-((2S)-2-Hydroxy-3-{[1-(4-methoxy-benzenesulfonyl)-piperidin-4-ylmethyl]-amino}-propoxy)-2-methyl-1H-indole] | 490 nM | 0.23
O=C1Cc2c(cccc2OC[C@@H](O)CNCC2CCN(S(=O)(=O)c3ccc(OC(F)(F)F)cc3)CC2)N1 [Example 46, 4-((2S)-2-Hydroxy-3-{[1-(4-trifluoromethoxy-benzenesulfonyl)-piperidin-4-ylmethyl]-amino}-propoxy)-1,3-dihydro-indol-2-one] | 222 nM | 0.81
O=C(Nc1ccc(S(=O)(=O)N2CCC(CNC[C@H](O)COc3ccc(O)cc3)CC2)cc1)c1n[nH]c2ccccc12 [Example 92, 1H-Indazole-3-carboxylic Acid [4-(4-{[(2S)-2-Hydroxy-3-(4-hydroxy-phenoxy)-propylamino]-methyl}-piperidine-1-sulfonyl)-phenyl]-amide] | 160 nM | 0.82
O=C(Nc1ccc(S(=O)(=O)N2CCC(CNC[C@H](O)COc3ccc(O)cc3)CC2)cc1)Nc1c(F)cccc1F [Example 83] | 112 nM | 1.2
Cc1cc2cccc(OC[C@@H](O)CNCC3CCN(S(=O)(=O)c4ccc(NC(=O)Nc5ccccc5)cc4)CC3)c2[nH]1 [Example 61, 1-[4-(4-{[(2S)-2-Hydroxy-3-(2-methyl-1H-indol-7-yloxy)-propylamino]-methyl}-piperidine-1-sulfonyl)-phenyl]-3-phenyl-urea] | 97 nM | 0.4
Cn1cnc(S(=O)(=O)N2CCC(CNC[C@H](O)COc3ccc(O)cc3)CC2)c1 [Example 49, 4-((2S)-2-Hydroxy-3-{[1-(1-methyl-1H-imidazole-4-sulfonyl)-piperidin-4-ylmethyl]-amino}-propoxy)-phenol] | 2360 nM | 0.4
CCCCCCCCN1CCC(CNC[C@H](O)COc2cccc3[nH]c4ccccc4c23)CC1 [Example 27] | 1030 nM | 0.51
COc1ccc(S(=O)(=O)N2CCC(CNC[C@H](O)COc3ccc(O)cc3)CC2)cc1OC [Example 43, 4-((2S)-2-Hydroxy-3-{[1-(3,4-dimethoxy-benzenesulfonyl)-piperidin-4-ylmethyl]-amino}-propoxy)-phenol] | 880 nM | 0.68
CCCCCCC(=O)Nc1ccc(S(=O)(=O)N2CCC(CNC[C@H](O)COc3ccc(O)cc3)CC2)cc1 [Example 90, Heptanoic Acid [4-(4-{[(2S)-2-Hydroxy-3-(4-hydroxy-phenoxy)-propylamino]-methyl}-piperidine-1-sulfonyl)-phenyl]-amide] | 269 nM | 0.91
O[C@@H](CNCC1CCN(CCC(F)(F)F)CC1)COc1c(Cl)ccc2[nH]c3ccccc3c12 [Example 19, (2S)-1-(3-Chloro-9H-carbazol-4-yloxy)-3-{[1-(3,3,3-trifluoro-propyl)-piperidin-4-ylmethyl]-amino}-propan-2-ol] | 1240 nM | 0.82
COc1ccc(S(=O)(=O)N2CCC(CNC[C@H](O)COc3c(Br)ccc4[nH]c5ccccc5c34)CC2)cc1 [Example 34, (2S)-1-(3-Bromo-9H-carbazol-4-yloxy)-3-{[1-(4-methoxy-benzenesulfonyl)-piperidin-4-ylmethyl]-amino}-propan-2-ol] | 7000 nM | 0.36
COc1ccc(S(=O)(=O)N2CCC(CNC[C@H](O)COc3ccc(O)cc3)CC2)cc1 [Example 37, 4-((2S)-2-Hydroxy-3-{[1-(4-methoxy-benzenesulfonyl)-piperidin-4-ylmethyl]-amino}-propoxy)-phenol] | 376 nM | 1.04
O=C(Nc1ccccc1)Nc1ccc(S(=O)(=O)N2CCC(CNC[C@H](O)COc3cccc4[nH]c(=O)[nH]c34)CC2)cc1 [Example 62, 1-[4-(4-{[2-Hydroxy-3-(2-oxo-2,3-dihydro-1H-benzoimidazol-4-yloxy)-propylamino]-methyl}-piperidine-1-sulfonyl)-phenyl]-3-phenyl-urea] | 10 nM | 0.68

Continued, values first:

EC50 | IA(β3) | SMILES
11 nM and 35 nM | 0.64 and 0.94 | CC(C)(C)c1ccc(S(=O)(=O)N2CCC(CNC[C@H](O)COc3cccc4[nH]c(=O)[nH]c34)CC2)cc1 [Example 162, 4-[((2S)-3-{[(1-{[4-(tert-butyl)phenyl]sulfonyl}piperidin-4-yl)methyl]-amino}-2-hydroxypropyl)oxy]-1,3-dihydro-2H-benzimidazol-2-one]
42 nM | 0.76 | CS(=O)(=O)Nc1cc([C@@H](O)CNCC2CCN(S(=O)(=O)c3cccc4ccccc34)CC2)ccc1O [Example 153, N-{2-hydroxy-5-[(1R)-1-hydroxy-2-({[1-(1-naphthylsulfonyl)piperidin-4-yl]methyl}amino)ethyl)phenyl}methanesulfonamide]
1 nM | 0.97 | CS(=O)(=O)Nc1cc([C@@H](O)CNCC2CCN(c3ccc(S(=O)(=O)N4CCCCC4)cc3)CC2)ccc1O [Example 106, (R)-N-{2-Hydroxy-5-[1-hydroxy-2-({1-[4-(piperidine-1-sulfonyl)-phenyl]-piperidin-4-ylmethyl}-amino)-ethyl]-phenyl}-methanesulfonamide]
10 nM | 1.2 | COC(=O)c1ccc(N2CCC(CNC[C@H](O)c3ccc(O)c(NS(C)(=O)=O)c3)CC2)nc1 [Example 107, Methyl 6-(4-{[((2R)-2-Hydroxy-2-{4-hydroxy-3-[(methylsulfonyl)amino]phenyl}-ethyl)amino]methyl}piperidin-1-yl)-nicotinate]
66 nM | 1 | CS(=O)(=O)Nc1cc([C@@H](O)CNCC2CCN(c3ccc(C(=O)N4CCCC4C(=O)O)cc3)CC2)ccc1O (stereo in doubt) [Example 115, (2S)-1-[4-(4-{[((2R)-2-Hydroxy-2-{4-hydroxy-3-[(methylsulfonyl)amino]phenyl}-ethyl)amino]methyl}piperidin-1-yl)benzoyl]pyrrolidine-2-carboxylic Acid]
8 nM | 1 | COC(=O)CCc1nc(-c2ccc(S(=O)(=O)N3CCC(CNC[C@H](O)c4ccc(O)c(NS(C)(=O)=O)c4)CC3)cc2)no1 [Example 104, 3-{3-[4-(4-{[(2R)-2-Hydroxy-2-(4-hydroxy-3-methanesulfonylamino-phenyl)-ethylamino]-methyl}-piperidine-1-sulfonyl)-phenyl]-[1,2,4]oxadiazol-5-yl}-propionic Acid Methyl Ester]
670 nM | 1 | O=c1[nH]c2cccc(OC[C@@H](O)CNCC3CCN(S(=O)(=O)c4ccc5ccccc5c4)CC3)c2[nH]1 [Example 157, 4-{[(2S)-2-hydroxy-3-({[1-(2-naphthylsulfonyl)piperidin-4-yl]methyl}amino)propyl]oxy}-1,3-dihydro-2H-benzimidazol-2-one]
